Reference: patent publication US10966426B2, “Herbicidal compositions comprising phenylpyrimidines” (BASF SE, priority 2016, dated 2021)
Like-named read-outs stand apart in the source and are kept apart here.

Key:
Type in all cases: in vivo
Poa annua = assay: greenhouse post-emergence treatment, POAAN; conditions: Poa annua, 480 h, 20 DAT, POAAN
Summary of the method: (§1)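 Plants in loamy sand (~3.0% humus) were sprayed post-emergence at 3–15 cm height with actives in a water spray liquor made from 10% by weight emulsion concentrates. Plants were kept at 10-25° C. or 20-35° C. by species and rated over 2–4 weeks on a 0–100 scale (100 = complete destruction). Colby's E = X+Y−(X·Y/100) gave the expected additive effect.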

Alopecurus myosuroides = assay: greenhouse post-emergence treatment, ALOMY; conditions: Alopecurus myosuroides, 480 h, 20 DAT, ALOMY
Summary of the method: (§2)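 Greenhouse test in humus-containing (~3.0%) loamy sand at species-dependent temperatures of 10-25° C. or 20-35° C.; treatments applied in water. Damage rated visually after 2–4 weeks (0 = none, 100 = complete destruction or no emergence).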

Papaver rhoeas = assay: greenhouse post-emergence treatment, PAPRH; conditions: Papaver rhoeas, 480 h, 20 DAT, PAPRH
Summary of the method: (§3)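 Post-emergence greenhouse spray on 3–15 cm plants, sown direct or transplanted a few days before treatment. Scored visually on a 0–100 scale after 2 to 4 weeks; expected additive effect computed by Colby: E=X+Y−(X·Y/100).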

Matricaria chamomilla = assay: greenhouse post-emergence treatment, MATCH; conditions: Matricaria chamomilla, 480 h, 70 gai/ha (SL 480 g/l), 20 DAT, MATCH, Table X7, read-out: % activity, solo application
Summary of the method: as §3

Helianthus annuus = assay: greenhouse post-emergence treatment, HELAN; conditions: Helianthus annuus, 480 h, 20 DAT, HELAN, dicamba SL 480 g/l solo 70 gai/ha
Protocol: The culture containers used were plastic pots containing loamy sand with approximately 3.0% of humus as substrate. The seeds of the test plants were sown separately for each species.
For the post-emergence treatment, the test plants were grown to a plant height of from 3 to 15 cm, depending on the plant habit, and only then treated with the active compounds which had been suspended or emulsified in water. To this end, the test plants were either sown directly, and grown in the same containers, or they were first grown separately as seedlings and transplanted into the test containers a few days prior to treatment.
Depending on the species, the plants were kept at 10-25° C. and 20-35° C., respectively.
The test period extended over 2 to 4 weeks. During this time, the plants were tended and their response to the individual treatments was evaluated.
Evaluation was carried out using a scale from 0 to 100. 100 means no emergence of the plants, or complete destruction of at least the above-ground parts, and 0 means no damage or normal course of growth. A good herbicidal activity is given at values of at least 70, and very good herbicidal activity is given at values of at least 85.
The respective stated components A and B, and if appropriate, C were formulated as a 10% by weight strength emulsion concentrate and, with addition of the amount of solvent system, introduced into the spray liquor used for applying the active compound. In the examples, the solvent used was water.
In the examples below, using the method of S. R. Colby (1967) “Calculating synergistic and antagonistic responses of herbicide combinations”, Weeds 15, p. 22ff., the value E, which is expected if the activity of the individual active compounds is only additive, was calculated. E=X+Y−(X·Y/100) where X=effect in percent using herbicide A at an application rate a; • Y=effect in percent using herbicide B at application rate b; • E=expected effect (in %) of herbicide A+herbicide B at application rates a+b.

Lolium multiflorum = assay: greenhouse post-emergence treatment, LOLMU; conditions: Lolium multiflorum, 480 h, 20 DAT, LOLMU
Summary of the method: as §2

Setaria viridis = assay: greenhouse post-emergence treatment, SETVI; conditions: Setaria viridis, 480 h, 35 gai/ha (SL 480 g/l), 20 DAT, SETVI, Table X7, read-out: % activity, solo application
Summary of the method: as §2

Galium aparine = assay: greenhouse post-emergence treatment, GALAP; conditions: Galium aparine, 480 h, 20 DAT, GALAP, dicamba SL 480 g/l solo 70 gai/ha
Summary of the method: as §3

Stellaria media = assay: greenhouse post-emergence treatment, STEME; conditions: Stellaria media, 480 h, 20 DAT, STEME, dicamba SL 480 g/l solo 35 gai/ha
Summary of the method: as §1

Echinocloa crus-galli = assay: greenhouse post-emergence treatment, ECHCG; conditions: Echinochloa crus-galli, 480 h, 20 DAT, ECHCG, dicamba SL 480 g/l solo 35 gai/ha
Summary of the method: as §3

Digitaria sanguinalis = assay: greenhouse post-emergence treatment, DIGSA; conditions: Digitaria sanguinalis, 480 h, 20 DAT, DIGSA
Summary of the method: as §2

Bromus sterilis = assay: greenhouse post-emergence treatment, BROST; conditions: Bromus sterilis, 480 h, 20 DAT, BROST
Summary of the method: as §2

Brachiaria decumbens = assay: greenhouse post-emergence treatment, BRADC; conditions: Urochloa decumbens, 480 h, 20 DAT, BRADC
Summary of the method: as §1

[1] = dicamba SL 480 g/l solo 17.5 gai/ha
[2] = dicamba SL 480 g/l solo 35 gai/ha
[3] = dicamba SL 480 g/l solo 70 gai/ha
[4] = dicamba SL 480 g/l solo 140 gai/ha
[5] = 35 gai/ha (SL 480 g/l), Table X7, read-out: % activity, solo application

## COc1c(Cl)ccc(Cl)c1C(=O)O [Dicamba, dicamba]
Poa annua; [1]
  inhibition at 17.5 g/ha: 0%
Poa annua; [2]
  inhibition at 35 g/ha: 0%
Poa annua; [3]
  inhibition at 70 g/ha: 0%
Poa annua; [4]
  inhibition at 140 g/ha: 0%
Alopecurus myosuroides; dicamba SL 480 g/l solo 140 gai/ha, read-out: % activity
  inhibition at 140 g/ha: 0%
Alopecurus myosuroides; [5]
  inhibition at 35 g/ha: 0%
Alopecurus myosuroides; 70 gai/ha (SL 480 g/l), Table X7, read-out: % activity, solo application
  inhibition at 70 g/ha: 0%
Alopecurus myosuroides; 140 gai/ha (SL 480 g/l), Table X7, read-out: % activity, solo application
  inhibition at 140 g/ha: 0%
Alopecurus myosuroides; 280 gai/ha (SL 480 g/l), Table X7, read-out: % activity, solo application
  inhibition at 280 g/ha: 5%
Papaver rhoeas; [1]
  inhibition at 17.5 g/ha: 20%
Papaver rhoeas; [2]
  inhibition at 35 g/ha: 30%
Matricaria chamomilla
  inhibition at 70 g/ha: 0%
Helianthus annuus
  inhibition at 70 g/ha: 85%
Lolium multiflorum; [1]
  inhibition at 17.5 g/ha: 0%
Lolium multiflorum; [2]
  inhibition at 35 g/ha: 0%
Setaria viridis
  inhibition at 35 g/ha: 0%
Galium aparine
  inhibition at 70 g/ha: 85%
Stellaria media
  inhibition at 35 g/ha: 80%
Echinocloa crus-galli
  inhibition at 35 g/ha: 0%
Digitaria sanguinalis; [1]
  inhibition at 17.5 g/ha: 0%
Digitaria sanguinalis; [2]
  inhibition at 35 g/ha: 0%
Digitaria sanguinalis; [3]
  inhibition at 70 g/ha: 0%
Digitaria sanguinalis; [4]
  inhibition at 140 g/ha: 30%
Bromus sterilis; [1]
  inhibition at 17.5 g/ha: 0%
Bromus sterilis; [2]
  inhibition at 35 g/ha: 0%
Bromus sterilis; [3]
  inhibition at 70 g/ha: 0%
Bromus sterilis; [4]
  inhibition at 140 g/ha: 0%
Brachiaria decumbens; [1]
  inhibition at 17.5 g/ha: 0%
Brachiaria decumbens; dicamba SL 480 g/l solo 35 gai/ha, read-out: % activity
  inhibition at 35 g/ha: 0%
Brachiaria decumbens; [4]
  inhibition at 140 g/ha: 30%
Brachiaria decumbens; [5]
  inhibition at 35 g/ha: 0%
